Measurements published in patent publication US8945847B2, “Methods and kits for ascertaining biosafety of an agent” (Yissum Research Development Company of the Hebrew …, priority 2010, dated 2015).
Values belong to the molecule of their own block, whether it stands above or below them.

Columns and labels:
human = details: in vivo; cited from earlier work
mouse = details: in vivo; cited from earlier work
[1] = tested on: human embryoid bodies (H9 HESCs); assay: DNA microarray global gene expression profiling of treated HESC embryoid bodies; details: for genes whose expression was significantly changed (over two-fold) relative to untreated controls: EBs treated seven days
Procedure: Differentiation in-vitro into embryoid bodies (EBs) was performed by trypsinizing confluent cultures using 0.25% trypsin-A in DPBS solution (Biological industries, Beit-Haemek, Israel) for 15 seconds to dissociate the colonies into large clumps. Clumps were then transferred 1:1 into non-stick petri dishes and grown in regular HESC medium but without exogenous FGF2.
Drug treatments: Embryoid body media were supplemented with the various treatment compounds on the first day and changed on alternate days. […] Thalidomide (Sigma, T144) was dissolved in DMSO at 1000× stock solution and used at a final concentration of 10 μg/ml. All-trans-Retinoic acid (Sigma, R2625) was dissolved in DMSO at 100,000× stock solution and used at a final concentration of 1 μM.
Microarray data analysis: Following seven days in culture, embryoid bodies were harvested and RNA was extracted using RBC Bioscience (Taipei, Taiwan) total RNA extraction minikit (YRB50) according to the manufacturer's protocol. Hybridization to GeneChip Human Gene 1.0 ST expression arrays, washing and scanning were performed according to the manufacturer's protocol (Affymetrix). Arrays were analyzed using RMA probeset condensation algorithm (Expression Console, Affymetrix). […] Tissue specific genes were identified by comparing the expression of each of the five most relevant tissues to the mean expression of all other tissues (testis, brain, heart, spleen, skeletal muscle, kidney, liver, and breast). The top 200 genes by fold change for every tissue were regarded to be tissue specific genes.
Genes were considered differentially expressed when changed over two-fold. […] Significance was calculated separately for each test using a Chi-Square independence test and corrected for multiple testing (Bonferroni). […] Functional classification and significance were performed using the DAVID online functional annotation tool (worldwidewebdotdaviddotabccdotncifcrfdotgov/) using default settings, with a minimum p-value of 0.0001. General annotations with over 2000 members were removed from the analysis.

[2] = tested on: AFP, SOX17, HOXA1, NCAM1 in EBs; assay: Immunofluorescent labeling of treated EBs; type: cell-based, human
Procedure: Immunofluorescent labeling: EBs were treated for seven days with either 1.5% ethanol or 1 μM all-trans-retinoic acid (see Drug Treatment section). EBs were let to settle and perfused with 10% sucrose-PBS solution for 30 minutes at 4° C., followed by an additional step in 30% sucrose-PBS solution for 1 hr at 4° C., with gentle shaking. EBs were then frozen in Tissue-Tek OCT solution (Sakura Finetek, USA) and cut into 9 μm sections. Samples were fixed following sectioning with PBS buffered 4% formaldehyde solution for 3 minutes. Blocking was performed with PBS, 2% BSA, 0.1% Triton x-100 solution for 1 hour at room temperature. Sections were incubated overnight at 4° C. with the following primary antibodies; AFP at 1:50 dilution (SC-8399, Santa-Cruz); HOXA1 at 1:50 dilution (SC-17146, Santa-Cruz); NCAM-1 at 1:150 dilution (AF2408, R&D Systems); SOX17 at 1:400 dilution (AF1924, R&D Systems). The sections were then incubated for 1 hour with the appropriate secondary antibody (Cy-3, Jackson ImmunoResearch) at room temperature. Finally, sections were counterstained with Hoechst (B2883, Sigma) for 10 minutes at room temperature.
Specifically, the protein levels of the fetal liver specific gene AFP and the earlier endodermal marker SOX17 were examined to assess the effects of ethanol treatment. The effect of RA treatment on neural differentiation was determined using antibodies for the HOXA1 protein and the neuronal specific protein NCAM1.

[3] = tested on: HiPSC EBs (hTERT-BJ1 derived clone #28); assay: DNA microarray gene expression profiling of RA-treated HiPSC embryoid bodies; type: cell-based, human; details: RA 1 μM, seven days
Procedure: Thalidomide was tested twice and caffeine once.

rodents = details: in vivo; cited from earlier work
[4] = lithium chloride 1 mM, caffeine 50 mg/ml, RA 1 μM, thalidomide 10 μg/ml
[5] = Gene Ontology functional annotation (DAVID), thalidomide 10 μg/ml
[6] = seven days, RA 1 μM, thalidomide 10 μg/ml

genes whose expression was significantly changed (over two-fold) relative to untreated controls [1, 4]: several hundred
downregulation of oxidative stress response genes, enrichment [1, 5]: 15.8 fold
nervous system development genes affected, enrichment [1, 5]: 2.5 fold
transforming growth factor beta genes affected, enrichment [1, 5]: 29.6 fold
upregulation of genes responsible for metabolism of xenobiotics, enrichment [1, 5]: 11.5 fold
fold enrichment of brain specific genes in upregulated genes [1, 6]: 12.5 fold
fold enrichment of liver specific genes in downregulated genes ([1]; seven days, thalidomide 10 μg/ml): 4.4 fold
Compound: O=C1CCC(N2C(=O)c3ccccc3C2=O)C(=O)N1 (centres unmarked) [thalidomide, Thalidomide]
teratogenicity in humans (human): strong human teratogen
teratogenicity in the mouse (mouse): not identified prospectively as such

genes whose expression was significantly changed (over two-fold) relative to untreated controls [1, 4]: several hundred
homeobox protein genes enriched in upregulated genes, fold above expected frequency ([1]; Gene Ontology functional annotation (DAVID), RA 1 μM): 14.1 fold
fold enrichment of heart specific genes in downregulated genes ([1]; seven days, RA 1 μM): 5.3
fold enrichment of brain specific genes in upregulated genes [1, 6]: 2.6 fold
Compound: CC1=C(/C=C/C(C)=C/C=C/C(C)=C/C(=O)O)C(C)(C)CCC1 [RA, All-trans-Retinoic acid]
expression of anterior HoxA and HoxB genes ([1]; HESC EBs, RA 1 μM, seven days): specifically upregulated
HOXA1 overexpression at the mRNA level ([1]; RA 1 μM, seven days, relative to control): 13.6 fold
NCAM1 abundance at the protein level ([2]; 1 μM all-trans-retinoic acid, seven days): increase
differentiation into the neuronal lineage (HOXA1 and NCAM1 labeling) ([2]; RA treatment): higher differentiation into the neuronal lineage
expression of anterior HoxA and HoxB genes [3]: specifically upregulated

Compound: CC(=O)Oc1ccccc1C(=O)O [aspirin]
teratogenicity in humans (human): not in humans
teratogenicity in rodents (rodents): teratogenic

genes whose expression was significantly changed (over two-fold) relative to untreated controls ([1]; 0.5% ethanol (v/v)): little or no effect
genes whose expression was significantly changed (over two-fold) relative to untreated controls ([1]; ethanol 1.5% and 2%, analyzed together): several hundred
liver protein genes, upregulated functional group enrichment ([1]; Gene Ontology functional annotation (DAVID), ethanol treated EBs): 9.3 fold
expression of later adult hepatic markers (albumin, alcohol dehydrogenase genes) ([1]; ethanol treated EBs): not upregulated
Compound: CCO [ethanol, Ethanol]
enriched functional annotations for downregulated genes ([1]; DAVID functional annotation, ethanol): no significantly enriched functional annotations
expression of early hepatic markers (AFP, transthyretin, apolipoprotein and fibrinogen genes) ([1]; high ethanol (1.5% and 2%)): specifically upregulated
AFP staining (protein level) ([2]; 1.5% ethanol, seven days): dramatic increase
SOX17 staining (protein level) ([2]; 1.5% ethanol, seven days): dramatic increase
AFP staining (protein level) ([2]; 1.5% ethanol, seven days, listed as Ethanol): elevation of AFP staining
